From patent US8057829B2, “Methods for repelling insects using sesquiterpene hydrocarbons and their derivatives” (Sterling International Inc., priority 2008, dated 2011)

How the values were obtained:
[1] = system: housefly (Musca domestica) antenna; assay: GC-EAD antennal response, housefly; conditions: synthetic mixture, about 100 ng of each compound
[2] = system: female mosquito Culex pipiens antenna; assay: GC-EAD antennal response, Culex pipiens; conditions: female Culex pipiens antennae; about 100 ng of each compound; responses weak, but repeatable; FIGS. 7 and 8
Experimental: The GC-EAD responses of the female mosquito Culex pipiens antenna were tested on a synthetic mixture of 1-octen-3-ol, and two sesquiterpene hydrocarbons, β-caryophyllene and isocaryophyllene, with about 100 ng of each compound in the mixture.
The GC-EAD responses of the female mosquito Culex pipiens antenna were tested on a synthetic mixture of 1-octen-3-ol, and representative sesquiterpene hydrocarbons and derivatives including (+)-longipinene, (−)-isolongifolene, (+)-longifolene, β-caryophyllene, and isolongifolenone, with about 100 ng of each compound in the mixture.
Antennal responses were weak, but repeatable, thus are considered to be true responses.
The following procedures were employed to test the EAD response of an insect antenna to a repellent compound. The GC-EAD technique provides an efficient tool for screening behaviorally active repellents. Several synthetic mixtures of potential insect repellent candidates, mostly sesquiterpene hydrocarbons and derivatives, were analyzed in splitless mode using a Varian CP-3800 GC equipped with a polar column (Innowax; 1.0 μm film thickness, 30 m×0.53 mm ID; J & W Scientific), and a 1:1 effluent splitter that allowed simultaneous flame ionization detection (FID) and EAD of the separated volatile compounds. Helium was used as the carrier gas, and the injector temperature was 220° C. The column temperature was 50° C. for 2 min, rising to 240° C. at 10° C./min, then held for 10 min. The outlet for the EAD was held in a humidified air stream flowing at 0.5 liter/min. over an antennal preparation. A glass capillary indifferent electrode filled with Beadle-Ephrussi Ringer, and grounded via a silver wire, was inserted into the severed insect's head with the antennae. A similar recording electrode connected to a high-impedance DC amplifier with automatic baseline drift compensation was placed in contact with the distal end of one antenna (Zhang et al., Chemoecology, 10:69-80 (2000)). The antennal signals were stored and analyzed on a PC equipped with a serial IDAC interface box and the program EAD ver. 2.5 (Syntech, Hilversum, The Netherlands). The compound 1-octen-3-ol (known attractant for many flies and mosquitoes) was included in most of the synthetic mixtures, as a positive control. The results of the experiments are shown in FIGS. 1-10 and described above.

[3] = system: Aedes Aegypti, Anopheles stephensi and the sand fly P. papatasi; assay: Y-tube bioassay, statements pooled for the three species; format: in vivo, Aedes aegypti; Anopheles stephensi; Phlebotomus papatasi; conditions: clove oil ca. 10 mg/day, patchouli oil 15 mg/d, sesquiterpenes 1 to 35 mg/d release
Experimental: Aegypti and An. stephensi, and one species of sand fly, P. papatasi. Both the mosquitoes and the sand flies used in the study were from colonies maintained at the Walter Reed Army Institute of Research, Department of Entomology, Silver Spring, Md. This Y-tube bioassay system, equipped with CO2-enriched air (ca. 1 l/min) as an attractant, was made from three clear acrylic tubes (4″ diameter; 12″ length) with symmetrical 120° angles among the three tube arms; and a screen butterfly valve on the top part of the bottom releasing tube. These spatial repellency tests were carried out during 8:00 am-12:00 pm (photophase) time period for Ae. aegypti and 1:00-5:00 pm (shifted scotophase) time period for the species of night-flying mosquitoes and sand fly in a temperature and humidity controlled testing room (23-25° C. and 20-40% RH). Female mosquitoes or sand flies were stored at ˜25-26° C., 50-89% RH, 12:12 hr. (L/D), fed with 10% sucrose solution before testing. The candidate chemical (individual or mixture) dispenser and a blank control were placed in the upper left or right arm of the Y-tube before releasing 25-40, 6 to 10 day-old female mosquitoes (or 3 to 10 day-old sand flies) into the bottom tube via a small hole. After a 30-60 sec acclimation period, the butterfly screen valve (door) on the top of the bottom tube was opened. After 10 min., the valve was closed and the numbers of mosquitoes or sand flies in each arm (including the bottom tube) were counted. In order to minimize the position effect, the same experiment was repeated once with the treatment and blank control arms shifted using a new (clean) Y-tube olfactometer and a new batch of mosquitoes/sand flies. Data from these two replicates were pooled for χ2 goodness of fit test (df=1) between the treatment and blank control.

[4] = female housefly antenna, FIG. 3

Compound | GC-EAD antennal activity [1, 4] | GC-EAD antennal activity [2] | spatial repellency, in words [3] | GC-EAD antennal activity ([1]; male housefly antenna, FIG. 4)
C=C1C2CCC3[C@H]2C(C)(C)CCC[C@]13C (single isomer, unassigned; (+)) [(+)-Longifolene] | active | active | showed spatial repellency effects | –
C=C1CC/C=C(/C)CC[C@@H]2[C@@H]1CC2(C)C [Isocaryophyllene, isocaryophyllene] | – | active | showed spatial repellency effects | EAD-active
C=C1CC/C=C(\C)CC[C@@H]2[C@@H]1CC2(C)C [β-Caryophyllene, β-caryophyllene] | active | active | showed spatial repellency effects | EAD-active
